Test results reported in patent publication US20050239656A1, “Pyridine compounds or salts thereof and herbicides containing the same” (priority 2002, published 2005).

Tests used:
redroot pigweed [1] = experiment: Test Example 1: foliage treatment, upland pot test; type: in vivo, Amaranthus retroflexus L.; conditions: active ingredient 500 g/ha, observed 18th to 23rd day, 0 = non-treated, 100 = complete kill
rice [2] = experiment: Test Example 1: foliage treatment, upland pot test; type: in vivo, Oryza sativa L.; conditions: crop, active ingredient 500 g/ha, observed 18th to 23rd day, 0 = non-treated, 100 = complete kill
Summary of the method: (§1)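 Upland pot test, foliar. Soybean 0.1–0.4 / wheat 1.3–2.4 / rice 1.2–2.6 / barnyardgrass 1.3–2.8 leaf stage at spraying; 500 L/ha carrier, 0.1% (v/v) spreader. Visual % control, 0 untreated to 100 dead, days 18–23.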

soybean [3] = experiment: Test Example 2: soil surface treatment, upland pot test; type: in vivo, Glycine max Merr.; conditions: observed 20th to 28th day
Summary of the method: (§2)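 Sowing, then next-day soil-surface spray of formulated test compound (fixed a.i. amount, 1,500 L/ha spray volume); visual evaluation of growth inhibition, 0–100%, three to four weeks (days 20–28) after application.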

velvetleaf [4] = experiment: as above; type: in vivo, Abutilon theophrasti MEDIC.; conditions: observed 20th to 28th day
Summary of the method: as §2

redroot pigweed [5] = experiment: as above; type: in vivo, Amaranthus retroflexus L.; conditions: observed 20th to 28th day
Summary of the method: as §2

crabgrass [6] = experiment: Test Example 1: foliage treatment, upland pot test; type: in vivo, Digitaria sanguinalis L.; conditions: active ingredient 500 g/ha, observed 18th to 23rd day, 0 = non-treated, 100 = complete kill
wheat [7] = experiment: Test Example 2: soil surface treatment, upland pot test; type: in vivo, Triticum spp.; conditions: observed 20th to 28th day
Summary of the method: as §2

rice (var. Nihonbare) = experiment: Test Example 3: paddy pot test, transplanted rice; type: in vivo, Oryza sativa L.; conditions: applied 4th day after transplantation, visually observed 21st day after application, 0 = non-treated, 100 = complete kill
Summary of the method: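 Rice (var. Nihonbare) at 2 leaf stage transplanted 3 cm deep into puddled paddy soil under 3–4 cm flooding; on day 4 after transplanting, diluted wettable powder or emulsifiable concentrate applied by pipette under submerged conditions at a set active-ingredient dose. Growth scored visually 21 days after application, 0 (untreated) to 100 (complete kill) %.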

soybean [8] = experiment: Test Example 1: foliage treatment, upland pot test; type: in vivo, Glycine max Merr.; conditions: crop, active ingredient 500 g/ha, observed 18th to 23rd day, 0 = non-treated, 100 = complete kill
Summary of the method: as §1

green foxtail [9] = experiment: Test Example 2: soil surface treatment, upland pot test; type: in vivo, Setaria viridis L.; conditions: observed 20th to 28th day
Summary of the method: as §2

japanese ribbon wapato = experiment: Test Example 3: paddy pot test, application under submerged conditions; type: in vivo, Sagittaria pygniaea; conditions: submerged application at primary leaf stage, visually observed 14 days after application, 0 = non-treated, 100 = complete kill
Summary of the method: (§3)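 Barnyardgrass and japanese bulrush sown in flooded paddy soil in greenhouse pots, japanese ribbon wapato tubers planted 1–2 days later; water depth kept at 3–4 cm. Diluted wettable powder or emulsifiable concentrate applied into water at 0.5-leaf or primary-leaf stage at set active-ingredient doses. Growth control scored visually at 14 days, 0 (untreated) to 100% (complete kill).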

japanese bulrush = experiment: as above; type: in vivo, Scirpus juncoides; conditions: submerged application at 0.5 leaf stage, visually observed 14 days after application, 0 = non-treated, 100 = complete kill
Summary of the method: as §3

corn [10] = experiment: Test Example 2: soil surface treatment, upland pot test; type: in vivo, Zea mays L.; conditions: observed 20th to 28th day
Summary of the method: as §2

velvetleaf [11] = experiment: Test Example 1: foliage treatment, upland pot test; type: in vivo, Abutilon theophrasti MEDIC.; conditions: active ingredient 500 g/ha, observed 18th to 23rd day, 0 = non-treated, 100 = complete kill
rice [12] = experiment: Test Example 2: soil surface treatment, upland pot test; type: in vivo, Oryza sativa L.; conditions: observed 20th to 28th day
Summary of the method: as §2

barnyardgrass [13] = experiment: as above; type: in vivo, Echinochloa crus-galli L.; conditions: observed 20th to 28th day
Summary of the method: as §2

prickly sida [14] = experiment: as above; type: in vivo, Sida spinosa L.; conditions: observed 20th to 28th day
Summary of the method: as §2

green foxtail [15] = experiment: Test Example 1: foliage treatment, upland pot test; type: in vivo, Setaria viridis L.; conditions: active ingredient 500 g/ha, observed 18th to 23rd day, 0 = non-treated, 100 = complete kill
crabgrass [16] = experiment: Test Example 2: soil surface treatment, upland pot test; type: in vivo, Digitaria sanguinalis L.; conditions: observed 20th to 28th day
Summary of the method: as §2

barnyardgrass [17] = experiment: Test Example 1: foliage treatment, upland pot test; type: in vivo, Echinochloa crus-galli L.; conditions: active ingredient 500 g/ha, observed 18th to 23rd day, 0 = non-treated, 100 = complete kill
Summary of the method: as §1

prickly sida [18] = experiment: Test Example 1: foliage treatment, upland pot test; type: in vivo, Sida spinosa L.; conditions: active ingredient 500 g/ha, observed 18th to 23rd day, 0 = non-treated, 100 = complete kill
wheat [19] = experiment: Test Example 1: foliage treatment, upland pot test; type: in vivo, Triticum spp.; conditions: crop, active ingredient 500 g/ha, observed 18th to 23rd day, 0 = non-treated, 100 = complete kill
Summary of the method: as §1

corn [20] = experiment: Test Example 1: foliage treatment, upland pot test; type: in vivo, Zea mays L.; conditions: crop, active ingredient 500 g/ha, observed 18th to 23rd day, 0 = non-treated, 100 = complete kill
Summary of the method: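 Corn seeds were sown in upland field soil held in a 1/170,000 ha pot and grown to the 2.1 to 3.2 leaf stage. A wettable powder or emulsifiable concentrate of the test compound was diluted with water at 500 L/ha, given 0.1% (v/v) agricultural spreader, and sprayed onto the foliage with a small sprayer. Growth controlling degree (%) was scored visually 18th to 23rd days later, from 0 (non-treated) to 100 (complete kill).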

barnyardgrass [21] = experiment: Test Example 3: paddy pot test, application under submerged conditions; type: in vivo, Echinochloa crus-galli L.; conditions: submerged application at 0.5 leaf stage, visually observed 14 days after application, 0 = non-treated, 100 = complete kill
Summary of the method: as §3

tall morningglory = experiment: Test Example 1: foliage treatment, upland pot test; type: in vivo, Ipomoea purpurea L.; conditions: active ingredient 500 g/ha, observed 18th to 23rd day, 0 = non-treated, 100 = complete kill
Description: Upland field soil was put into a 1/170,000 ha pot, and seed of various plants were sown. Then, when the plants reached predetermined leaf stages ((1) barnyardgrass: 1.3 to 2.8 leaf stages, (2) crabgrass: 1.0 to 2.8 leaf stages, (3) green foxtail: 1.3 to 2.6 leaf stages, (4) redroot pigweed: 0.1 to 1.2 leaf stages, (5) prickly sida: 0.1 to 1.2 leaf stages, (6) velvetleaf: 0.1 to 1.2 leaf stages, (7) tall morningglory: 0.1 to 1.5 leaf stages, (8) rice: 1.2 to 2.6 leaf stages, (9) wheat: 1.3 to 2.4 leaf stages, (10) corn, 2.1 to 3.2 leaf stages, (11) soybean: 0.1 to 0.4 leaf stage), a wettable powder or emulsifiable concentrate having the compound of the present invention formulated in accordance with a usual formulation method, was weighed so that the active ingredient would be a predetermined amount, and diluted with water in an amount of 500 L/ha. To the diluted solution, 0.1% (v/v) of agricultural spreader was added. The herbicide thus adjusted was applied by a small size sprayer for foliage treatment. On the 18th to 23rd days after the application of the herbicide, the growth of the respective plants was visually observed, and the herbicidal effects were evaluated by the growth controlling degrees (%) ranging from 0 (equivalent to the non-treated plot) to 100 (complete kill), whereby the results shown in Table 3, were obtained.

Row | Structure (SMILES) | Growth controlling degree (%) Redroot pigweed (redroot pigweed [1]) [%] | Growth controlling degree (%) Rice (rice [2]) [%] | Growth controlling degree (%) Soyabean (soybean [3]; active ingredient 250 g/ha) [%] | Growth controlling degree (%) Velvetleaf (velvetleaf [4]; active ingredient 250 g/ha) [%] | Growth controlling degree (%) Redroot pigweed (redroot pigweed [5]; active ingredient 250 g/ha) [%] | Growth controlling degree (%) Crabgrass (crabgrass [6]) [%] | Growth controlling degree (%) wheat (wheat [7]; active ingredient 250 g/ha) [%] | Growth controlling degree (%) Rice (rice (var. Nihonbare); active ingredient 250 g/ha) [%] | Growth controlling degree (%) Soybean (soybean [8]) [%] | Growth controlling degree (%) Green foxtail (green foxtail [9]; active ingredient 250 g/ha) [%] | Growth controlling degree (%) Japanese ribbon wapato (japanese ribbon wapato; active ingredient 250 g/ha) [%] | Growth controlling degree (%) Japanese bulrush (japanese bulrush; active ingredient 250 g/ha) [%] | Growth controlling degree (%) Corn (corn [10]; active ingredient 250 g/ha) [%] | Growth controlling degree (%) Velvetleaf (velvetleaf [11]) [%] | Growth controlling degree (%) Rice (rice [12]; active ingredient 250 g/ha) [%] | Growth controlling degree (%) Barnyardgrass (barnyardgrass [13]; active ingredient 250 g/ha) [%] | Growth controlling degree (%) Green foxtail (green foxtail [15]) [%] | Growth controlling degree (%) Barnyardgrass (barnyardgrass [17]) [%] | Growth controlling degree (%) Prickly sida (prickly sida [18]) [%] | Growth controlling degree (%) Corn (corn [20]) [%] | further results
1 | COCC(=O)N(C)C(c1cnccc1C(F)(F)F)C(C)C (stereo not drawn) [I-195] | 80 | 70 | 10 | 10 | 30 | 80 | 10 | 20 | 60 | 60 | 80 | 100 | 20 | 60 | 40 | 98 | 60 | 70 | 70 | 10 | Growth controlling degree (%) Prickly sida (prickly sida [14]; active ingredient 250 g/ha): 30%; Growth controlling degree (%) Crabgrass (crabgrass [16]; active ingredient 250 g/ha): 98%; Growth controlling degree (%) wheat (wheat [19]): 30%; Growth controlling degree (%) Barnyardgrass (barnyardgrass [21]; active ingredient 250 g/ha): 70%
2 | CC(C)C(c1cnccc1C(F)(F)F)N(C)C(=O)CC(C)(C)C (stereo not drawn) [I-194] | 50 | 50 | 10 | 30 | 50 | 80 | 20 | 30 | 40 | 100 | 30 | 98 | 10 | 10 | 40 | 100 | 70 | 70 | 70 | 20 | Growth controlling degree (%) Prickly sida (prickly sida [14]; active ingredient 250 g/ha): 40%; Growth controlling degree (%) Crabgrass (crabgrass [16]; active ingredient 250 g/ha): 100%; Growth controlling degree (%) wheat (wheat [19]): 40%; Growth controlling degree (%) Barnyardgrass (barnyardgrass [21]; active ingredient 250 g/ha): 98%
3 | CC(C)C(c1cnccc1C(F)(F)F)N(C)C(=O)Cc1ccc(Cl)cc1Cl (stereo not drawn) [I-14] | 80 | 20 |  |  |  | 70 |  |  | 20 |  |  |  |  | 70 |  |  | 60 | 50 | 80 | 40 | Growth controlling degree (%) Soyabean (soybean [3]; active ingredient 1000 g/ha): 0%; Growth controlling degree (%) Velvetleaf (velvetleaf [4]; active ingredient 1000 g/ha): 60%; Growth controlling degree (%) Redroot pigweed (redroot pigweed [5]; active ingredient 1000 g/ha): 85%; Growth controlling degree (%) wheat (wheat [7]; active ingredient 1000 g/ha): 30%; Growth controlling degree (%) Rice (rice (var. Nihonbare); active ingredient 500 g/ha): 10%; Growth controlling degree (%) Green foxtail (green foxtail [9]; active ingredient 1000 g/ha): 100%; Growth controlling degree (%) Japanese ribbon wapato (japanese ribbon wapato; active ingredient 500 g/ha): 30%; Growth controlling degree (%) Japanese bulrush (japanese bulrush; active ingredient 500 g/ha): 98%; Growth controlling degree (%) Corn (corn [10]; active ingredient 1000 g/ha): 20%; Growth controlling degree (%) Rice (rice [12]; active ingredient 1000 g/ha): 10%; Growth controlling degree (%) Barnyardgrass (barnyardgrass [13]; active ingredient 1000 g/ha, 0 = non-treated, 100 = complete kill): 100%; Growth controlling degree (%) Prickly sida (prickly sida [14]; active ingredient 1000 g/ha): 60%; Growth controlling degree (%) Crabgrass (crabgrass [16]; active ingredient 1000 g/ha): 100%; Growth controlling degree (%) Tall morningglory (tall morningglory): 95%; Growth controlling degree (%) Barnyardgrass (barnyardgrass [21]; active ingredient 500 g/ha): 100%
